Common to all, as to assay type: cell-based
Experiment [1] relates to blood coagulation. As to the kind of experiment: ROTEM measurement, BD sodium citrate tube, calcium chloride, CTI, aprotinin, heparin sodium and prothrombin reagent (tissue factor). The settings on record: (1) no hemostatic agent; (2) NovoSeven 2 μg/mL; (3) TFPI 10 μg/mL; HemosIL RecombiPlasTin 0.04%. Here is the method: (§1) To a blood sample collected in a sodium citrate blood collection tube manufactured by BD (containing 3.2% sodium citrate in an amount of 1/10 volume with respect to the blood), the following reagents were added to perform ROTEM measurement.
(1) Calcium chloride (final concentration, 12 mM), CTI (final concentration, 50 μg/mL), aprotinin (final concentration, 20 μg/mL), heparin sodium (final concentration, 0.15 U/mL), and a prothrombin reagent (addition of HemosIL RecombiPlasTin (15 μg/mL) to a final concentration of about 0.04%)
(2) Calcium chloride (final concentration, 12 mM), CTI (final concentration, 50 μg/mL), aprotinin (final concentration, 20 μg/mL), heparin sodium (final concentration, 0.15 U/mL), NovoSeven (final concentration, 2 μg/mL), and a prothrombin reagent (addition of HemosIL RecombiPlasTin to a final concentration of 0.04%) […]

In experiment [2] the test system is blood coagulation. Description: ROTEM measurement with STARTEM and EXTEM reagents (Comparative Example). The settings on record: (1) alone, (2) NovoSeven 2 μg/mL, (3) TFPI 10 μg/mL. Here is the method:
as §1
(1) STARTEM reagent and EXTEM reagent (trademark; a test reagent containing tissue factor as a major component)
(2) STARTEM reagent, EXTEM reagent, and NovoSeven (Novo Nordisk Pharma Ltd.; final concentration, 2 μg/mL)
(3) STARTEM reagent, EXTEM reagent, and TFPI (final concentration, 10 μg/mL)

Experiment [3] has as its system mixed white thrombus formation. As to the kind of experiment: Thrombogenic capacity (white thrombus formation) in microchip coated with collagen and tissue factor, device of FIG. 2. The settings on record: tube A; aprotinin 10 μg/mL added before blood collection; calcium chloride 12 mM and CTI 50 μg/mL; flow rate 10 μL/min. The protocol: A method for analyzing the mixed white thrombus formation capacity using a microchip B for analysis of a mixed white thrombus is described below with reference to FIG. 2. The example illustrated in FIG. 2 is a mode in which a blood coagulation inhibitor is added to blood that has passed through a channel. However, this is merely an example, and the microchip may be, of course, in a different mode.
A reservoir (blood storage container) 206 is connected in an inverted position to an inlet 204 of the microchip B, and a liquid transfer pump 207 is connected to the reservoir 206. To the liquid transfer pump 207, a pressure sensor 208 is connected.
As the liquid for a liquid transfer pump 207, a liquid having a specific gravity lower than that of blood, such as mineral oil or […] is used. This liquid is introduced using the liquid transfer pump 207 into a reservoir 206 in which blood is preliminarily filled, thereby overlaying the liquid on the blood. […] By measuring the inflow pressure of the liquid, the inflow pressure of the blood into the channel can be indirectly measured.
More specifically, mineral oil is injected from the liquid transfer pump 207 into the reservoir 206. […] By providing the narrow section, high-shear-stress-induced platelet aggregation can be monitored, and thrombus formation in atherothrombosis can be reproduced, which is preferred. […]

The subject of experiment [4] is blood coagulation. As to the kind of experiment: ROTEM measurement of blood collected in BD sodium citrate tube with added reagents. The settings on record: for blood coagulation (ROTEM): CTI 50 μg/mL, aprotinin 20 μg/mL. The protocol: as §1
(2) Calcium chloride (final concentration, 12 mM) and CTI (final concentration, 50 μg/mL)
(3) Calcium chloride (final concentration, 12 mM), CTI (final concentration, 50 μg/mL), and aprotinin (final concentration, 20 μg/mL)
(4) Calcium chloride (final concentration, 12 mM), CTI (final concentration, 50 μg/mL), aprotinin (final concentration, 20 μg/mL), and danaparoid sodium (final concentration, 0.25 U/mL)
The results for (1), (2), (3), and (4) are shown from the left in this order (in the order of initiation of coagulation).
(1) STARTEM reagent (calcium chloride reagent)
(4) Calcium chloride (final concentration, 12 mM), CTI (final concentration, 50 μg/mL), aprotinin (final concentration, 20 μg/mL), and heparin sodium (Mochida Pharmaceutical Co., Ltd.; final concentration, 0.15 U/mL)

Experiment [5] relates to platelet thrombus formation. As to the kind of experiment: Flow measurement of platelet thrombus formation in collagen-coated microchip, device of FIG. 1. The settings on record: blood collected in BD heparin blood collection tube, directly measured; 18 μL/min. From the text: First, a method for analyzing the platelet thrombus formation capacity using a microchip A for analysis of a platelet thrombus is described below with reference to FIG. 1. In the example illustrated in FIG. 1, two channels are provided in parallel. However, this is merely an example, and, of course, the microchip may have a single channel, or may be in a different mode.
Reservoirs (blood storage containers) 106 and 116 are connected in an inverted position to a first inlet 104 and a second inlet 114, respectively, of the microchip A, and liquid transfer pumps 107, and 117 are connected to the reservoirs 106 and 116. To the liquid transfer pumps 107 and 117, pressure sensors 108 and 118 are connected. […]
As the liquid for the liquid transfer pumps 107 and 117, a liquid having a specific gravity lower than that of blood, such as mineral oil or […] is used. […] By measuring the inflow pressure of the liquid, the inflow pressure of the blood into each channel can be indirectly measured. […]
Thrombus formation by platelets occurs when the blood passes through the reaction sections, and increases in the inflow pressure due to this thrombus formation can be observed. By detecting the patterns of these pressure increases using the pressure sensors, and comparing the detected patterns, blood properties, that is, the platelet thrombus formation capacity, can be evaluated. […]

With Ac-FQSKpNVHVDGYFERLXAKL-NH2 [TFPI], the “order of coagulation (ROTEM)” value in experiment [1] is “Coagulation occurred in the order of (2), (3), and (1)”. The “ROTEM waveform versus reagent alone” value in experiment [2] is “showed the same waveform”.

Regarding aprotinin, the “thrombogenic capacity in the presence of blood flow” value in experiment [3] was “did not influence the data”. For the same substance, the “initiation of coagulation (ROTEM)” value in experiment [4] (aprotinin 20 μg/mL together with calcium chloride 12 mM and CTI 50 μg/mL) was “suppressed initiation of blood coagulation”.

As to danaparoid sodium, the “blood coagulation (ROTEM)” value in experiment [4] (danaparoid sodium 0.25 U/mL further added to calcium chloride 12 mM) is “complete suppression of blood coagulation”.

For heparin, the “pressure increase due to platelet thrombus formation” value in experiment [5] was “hardly observed”.

As to heparin sodium, the “blood coagulation (ROTEM)” value in experiment [4] (heparin sodium 0.15 U/mL further added to calcium chloride 12 mM) is reported as “complete suppression of blood coagulation”.
